In patent US9408391B2, “Fungicide composition comprising a tetrazolyloxime derivative and a thiazolylpiperidine derivative” (BAYER INTELLECTUAL PROPERTY GMBH, priority 2010, dated 2016):
Where two headings read alike, the source gives them in different places.

Experiments:
Phytophthora infestans = assay type: in vivo; details: tomato plants, preventive spray, evaluated 3 days after inoculation
Venturia inaequalis = assay: Venturia test (apples)/preventive; details: apple plants, preventive spray, 100 ppm a.i., evaluated 10 days after inoculation
Procedure: Venturia Test (Apples)/Preventive
Solvent: 24,5 parts by weight of acetone • 24,5 parts by weight of dimethylacetamide
Emulsifier: part by weight of alkylaryl polyglycol ether
After the spray coating has dried on the plants are inoculated with an aqueous conidia suspension of the causal agent of apple scab (Venturia inaequalis) and then remain for 1 day in an incubation cabinet at approximately 20° C. and a relative atmospheric humidity of 100%.
The plants are then placed in a greenhouse at approximately 21° C. and a relative atmospheric humidity of approximately 90%.
The test is evaluated 10 days after the inoculation.

| SMILES | Efficacy in % found (Phytophthora infestans; 1 ppm a.i.) [%] | Efficacy in % found (Venturia inaequalis) [%] | Efficacy in % found (Phytophthora infestans; 0.01 ppm a.i.) [%] |
| --- | --- | --- | --- |
| Cn1nnnc1/C(=N\OCc1cccc(NC(=O)OC(C)(C)C)n1)c1ccccc1 [(A2)] | 46 | 22 |  |
| Cc1cc(C(F)(F)F)nn1CC(=O)N1CCC(c2nc(C3=NOC(c4c(F)cccc4F)C3)cs2)CC1 (stereo not shown) [(B2), 1-(4-{4-[5-(2,6-difluorophenyl)-4,5-dihydro-1,2-oxazol-3-yl]-1,3-thiazol-2-yl}piperidin-1-yl)-2-[5-methyl-3-(trifluoromethyl)-1H-pyrazol-1-yl]ethanone] |  | 0 | 30 |
